From patent publication US20100092443A1, “NOVEL COMBINATIONS OF NITROGENATED HETEROCYCLIC ANTIBACTERIAL COMPOUNDS WITH OTHER ANTIBACTERIAL COMPOUNDS AND THE USE OF SAME AS DRUGS” (priority 2008, published 2010)
≈ marks a conversion by molar mass, not a printed value. Where two headings read alike, the source gives them in different places.

What was measured:
Assay type in all cases: cell-based
[1] = tested on: Pseudomonas aeruginosa; assay: MIC, dilutions in liquid medium, alone and combined with NXL105; conditions: Pseudomonas aeruginosa
Method: (§1) In vitro activity, method of dilutions in liquid medium:
A series of test 96-well microtiter plates are prepared in which the same quantity of sterile nutritive medium is distributed. Increasing quantities of the compound to be studied, namely the antibacterial compound alone and the inventive combination with the compound of formula (I) of example 1, are distributed in each plate in the respective proportions 2:1 and 4:1, and then each plate is inoculated with a bacterial strain of Pseudomonas aeruginosa. After 24 h of incubation in a 37° C. oven, growth inhibition is evaluated by transillumination, which makes it possible to determine the minimum inhibitory concentrations (MICS) expressed in μg/ml.

[2] = tested on: E. coli; assay: microbe, parasite or virus in culture; conditions: Escherichia coli
Method: as §1
(§2) A series of test 96-well microtiter plates are prepared in which the same quantity of sterile nutritive medium is distributed. […] After 24 h of incubation in a 37° C. oven, growth inhibition is evaluated by transillumination, which makes it possible to determine the minimum inhibitory concentrations (MICS) expressed in μg/ml.

[3] = tested on: K. oxytoca; assay: MIC, dilutions in liquid medium, alone and combined with NXL105; conditions: Klebsiella oxytoca, read-out: MIC
[4] = tested on: K. pneumoniae; assay: as above; conditions: Klebsiella pneumoniae, read-out: MIC
Method: as §1, §2

[5] = tested on: E. cloacae; assay: as above; conditions: Enterobacter cloacae, read-out: MIC
Method: as §1, §2

[6] = tested on: C. freundii; assay: as above; conditions: Citrobacter freundii, read-out: MIC

SMILES: CC(C)(O/N=C(\C(=O)N[C@@H]1C(=O)N2C(C(=O)[O-])=C(C[n+]3ccccc3)CS[C@H]12)c1csc(N)n1)C(=O)O [Ceftazidime]
- MIC ([1]; ATCC27853, P. aeruginosa ATCC 27853): 0.5 µg/mL
- MIC ([1]; P. aeruginosa 391HG2): > 32 µg/mL
- MIC ([1]; P. aeruginosa 391HG21): > 32 µg/mL
- MIC ([1]; P. aeruginosa 391HG38): > 32 µg/mL
- MIC ([1]; P. aeruginosa 391HG39): 1 µg/mL
- MIC ([1]; P. aeruginosa 391HG58): > 32 µg/mL
- MIC ([1]; P. aeruginosa 391HG118): 4 µg/mL
- MIC ([1]; P. aeruginosa 391HG123): 32 µg/mL
- MIC ([1]; P. aeruginosa 391HG158): > 32 µg/mL
- MIC ([1]; P. aeruginosa 391HG271): > 32 µg/mL
- MIC ([1]; P. aeruginosa 391HG329): > 32 µg/mL
- MIC ([1]; P. aeruginosa 391K1455): 32 µg/mL
- MIC ([1]; P. aeruginosa 391K1523): 16 µg/mL
- MIC ([1]; P. aeruginosa 391K1525): 32 µg/mL
- MIC ([1]; P. aeruginosa 391K1536): 32 µg/mL
- MIC ([1]; P. aeruginosa 391K2376): 32 µg/mL
- MIC ([1]; P. aeruginosa 391K2379): 32 µg/mL
- MIC ([1]; P. aeruginosa 391K2415): 32 µg/mL
- MIC ([1]; P. aeruginosa 391KB9): > 32 µg/mL
- MIC ([1]; P. aeruginosa 391KB14): 32 µg/mL
- MIC ([1]; P. aeruginosa 391KB21): > 32 µg/mL
- MIC ([1]; P. aeruginosa 391KB33): 32 µg/mL
- MIC ([1]; P. aeruginosa 391KB38): > 32 µg/mL
- MIC ([1]; P. aeruginosa 391KB62): > 32 µg/mL
- MIC ([1]; P. aeruginosa 391KB68): > 32 µg/mL
- MIC ([1]; P. aeruginosa 391KB90): > 32 µg/mL
- MIC ([1]; P. aeruginosa 391KB91): > 32 µg/mL
- MIC ([1]; P. aeruginosa 391KB99): > 32 µg/mL
- MIC ([1]; P. aeruginosa 391KB103): 32 µg/mL
- MIC ([1]; P. aeruginosa 391KB105): > 32 µg/mL
- MIC ([1]; P. aeruginosa 391KB106): 32 µg/mL
- MIC ([1]; P. aeruginosa 391KB107): > 32 µg/mL
- MIC ([1]; P. aeruginosa 391KB114): > 32 µg/mL
- MIC ([1]; P. aeruginosa 391KB127): > 32 µg/mL
- MIC ([1]; P. aeruginosa 391KB135): > 32 µg/mL
- MIC ([1]; P. aeruginosa 391KB136): > 32 µg/mL
- MIC ([1]; P. aeruginosa 391KB137): > 32 µg/mL
- MIC ([1]; P. aeruginosa 391KB138): > 32 µg/mL
- MIC ([1]; P. aeruginosa 391KB139): > 32 µg/mL
- MIC ([1]; P. aeruginosa 391KB140): 16 µg/mL
- MIC ([1]; P. aeruginosa 391KB141): > 32 µg/mL
- MIC ([1]; P. aeruginosa 391KB142): > 32 µg/mL
- MIC ([1]; P. aeruginosa 391KB143): > 32 µg/mL
- MIC ([1]; P. aeruginosa 391KB144): > 32 µg/mL
- MIC ([1]; P. aeruginosa 391QBR2): > 32 µg/mL
- MIC ([1]; P. aeruginosa 391QBR3): > 32 µg/mL
- MIC ([1]; P. aeruginosa 391QBR4): > 32 µg/mL
- MIC ([1]; P. aeruginosa 391QBR5): > 32 µg/mL
- MIC ([1]; P. aeruginosa 391QBR7): > 32 µg/mL
- MIC ([1]; P. aeruginosa 391QBR8): > 32 µg/mL
- MIC ([1]; P. aeruginosa 391QBR9): > 32 µg/mL
- MIC ([1]; P. aeruginosa 391QBR10): > 32 µg/mL
- MIC ([1]; P. aeruginosa C3719): > 32 µg/mL
- MIC ([2]; 24 h, E. coli 2138, KPC-2 + TEM-1): > 32 µg/mL
- MIC ([2]; 24 h, E. coli (no alias), CTX-M-15 + TEM-1 + OXA-1): > 32 µg/mL
- MIC ([2]; 24 h, E. coli IND, VEB-1 + CMY-2): > 32 µg/mL
- MIC ([2]; 24 h, E. coli TN06, CTX-M-2 + TEM-1): 16 µg/mL
- MIC ([2]; 24 h, E. coli TN13, CTX-M-14 + CMY-2 + TEM-1): > 32 µg/mL
- MIC ([2]; 24 h, E. coli Tunisie clone E4, CTX-M-16 + TEM-1): > 32 µg/mL
- MIC ([2]; E. coli (no alias), Cephalosporinase, read-out: MIC): > 32 µg/mL
- MIC ([2]; E. coli (no alias), SHV-4): > 32 µg/mL
- MIC ([2]; E. coli (no alias), TEM-3): 32 µg/mL (≈ 58.5 µM)
- MIC ([3]; K. oxytoca 1431, TEM-129): > 32 µg/mL
- MIC ([3]; K. oxytoca 16944, OXY-2, TEM-1): > 32 µg/mL
- MIC ([4]; 24 h, K. pneumoniae 60, SHV-2 + TEM-2 + PER): > 32 µg/mL
- MIC ([4]; 24 h, K. pneumoniae 157, SHV-5 + TEM-26): > 32 µg/mL
- MIC ([4]; 24 h, K. pneumoniae 181, SHV-5 + TEM-10): > 32 µg/mL
- MIC ([4]; 24 h, K. pneumoniae 236, SHV-5 + TEM-10): > 32 µg/mL
- MIC ([4]; 24 h, K. pneumoniae 238, SHV-2 + TEM-12 + CTX-M-2): > 32 µg/mL
- MIC ([4]; 24 h, K. pneumoniae 243, SHV-5 + TEM-63): > 32 µg/mL
- MIC ([4]; 24 h, K. pneumoniae 253, SHV-2 + TEM-12 + CTX-M-2): > 32 µg/mL
- MIC ([4]; 24 h, K. pneumoniae 427, SHV-1 + TEM-1B + CTX-M-3): > 32 µg/mL
- MIC ([4]; 24 h, K. pneumoniae 441, SHV-1 + TEM-2 + PER): > 32 µg/mL
- MIC ([4]; 24 h, K. pneumoniae 444, SHV-5 + TEM-2 + PER): > 32 µg/mL
- MIC ([4]; 24 h, K. pneumoniae 449, SHV-1 + TEM-2 + PER): > 32 µg/mL
- MIC ([4]; 24 h, K. pneumoniae 465, TEM-1B + CTX-M-2): > 32 µg/mL
- MIC ([4]; 24 h, K. pneumoniae 1734, FOX-3 + TEM-1): > 32 µg/mL
- MIC ([4]; 24 h, K. pneumoniae 9701, CMY-4 + TEM-1): > 32 µg/mL
- MIC ([4]; 24 h, K. pneumoniae KOL, MOX-2 + SHV-5 + TEM-1): > 32 µg/mL
- MIC ([4]; 24 h, K. pneumoniae Patient 1BHR, VIM-4 + CTX-M-15 = CMY-4 + TEM-1): > 32 µg/mL
- MIC ([4]; 24 h, K. pneumoniae Patient F, VIM-1 + SHV-5): > 32 µg/mL
- MIC ([4]; 24 h, K. pneumoniae SLK54, ACC-1 + TEM-1): > 32 µg/mL
- MIC ([4]; 24 h, K. pneumoniae TN58467, DHA-1 + SHV-2a + TEM-1): > 32 µg/mL
- MIC ([4]; 24 h, K. pneumoniae Tunisie clone K1, CTX-M-16 + OXA-1): > 32 µg/mL
- MIC ([4]; 24 h, K. pneumoniae Tunisie clone K4, CTX-M-15 + TEM-1 + OXA-1): > 32 µg/mL
- MIC ([4]; ATCC700603, K. pneumoniae ATCC 700603, SHV-18): > 32 µg/mL
- MIC ([4]; K. pneumoniae 26, SHV-5): > 32 µg/mL
- MIC ([4]; K. pneumoniae CL5761, KPC-3): > 32 µg/mL
- MIC ([4]; K. pneumoniae CL5762, KPC-3): > 32 µg/mL
- MIC ([4]; K. pneumoniae CL5763, KPC-3): > 32 µg/mL
- MIC ([4]; K. pneumoniae KP04, CTX-M-14): 32 µg/mL
- MIC ([4]; K. pneumoniae VA8, KPC-3): > 32 µg/mL
- MIC ([4]; K. pneumoniae VAKP, KPC-2): > 32 µg/mL
- MIC ([4]; K. pneumoniae YC, KPC-2): > 32 µg/mL
- MIC ([5]; 24 h, E. cloacae 7506, KPC-2 + TEM-1 + KLUC-2): > 32 µg/mL
- MIC ([5]; E. cloacae (no alias), AmpC): > 32 µg/mL
- MIC ([5]; E. cloacae, AmpC): 32 µg/mL
- MIC ([6]; 24 h, C. freundii (no alias), AmpC + TEM-1): > 32 µg/mL
- MIC ([6]; C. freundii (no alias, table row r121), AmpC): > 32 µg/mL
- MIC ([6]; C. freundii (no alias, table row r122), AmpC): > 32 µg/mL
- MIC ([6]; C. freundii (no alias, table row r123), AmpC): > 32 µg/mL
- MIC ([6]; C. freundii (no alias, table row r125), AmpC): 16 µg/mL
